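Method: 48-hour compound exposure of cells in 96-well plates, five concentrations, linear interpolation of endpoints. GI50: concentration for 50% inhibition of growth. At the TGI there is no net growth.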
Columns and labels:
Test in all cases: NCI-60 cell line screen, 48 h; in the data active means GI50 below about 0.43 µM; inactive means the rest
[1] = system: 786-0 renal
[2] = system: A498 renal
[3] = system: A549 NSCLC
[4] = system: ACHN renal
[5] = system: BT-549 breast
[6] = system: CAKI-1 renal
[7] = system: CCRF-CEM leukemia
[8] = system: DU-145 prostate
[9] = system: EKVX NSCLC
[10] = system: HCC-2998 colon
[11] = system: HCT-116 colon
[12] = system: HCT-15 colon
[13] = system: HL-60(TB) leukemia
[14] = system: HOP-62 NSCLC
[15] = system: HOP-92 NSCLC
[16] = system: HS 578T breast
[17] = system: HT29 colon
[18] = system: IGROV1 ovarian
[19] = system: K-562 leukemia
[20] = system: KM12 colon
[21] = system: M14 melanoma
[22] = system: MALME-3M melanoma
[23] = system: MCF7 breast
[24] = system: MDA-MB-231 breast
[25] = system: MDA-MB-435
[26] = system: NCI-H226 lung
[27] = system: NCI-H23 lung
[28] = system: NCI-H460 lung
[29] = system: NCI-H522 lung
[30] = system: NCI/ADR-RES ovarian
[31] = system: OVCAR-3 ovarian
[32] = system: OVCAR-4 ovarian
[33] = system: OVCAR-5 ovarian
[34] = system: OVCAR-8 ovarian
[35] = system: PC-3 prostate
[36] = system: RPMI-8226 leukemia
[37] = system: RXF 393 renal
[38] = system: SF-268 CNS
[39] = system: SF-295 CNS
[40] = system: SF-539 CNS
[41] = system: SK-MEL-2 melanoma
[42] = system: SK-MEL-28 melanoma
[43] = system: SK-MEL-5 melanoma
[44] = system: SK-OV-3 ovarian
[45] = system: SN12C renal
[46] = system: SNB-19 CNS
[47] = system: SNB-75 CNS
[48] = system: SW-620 colon
[49] = system: TK-10 renal
[50] = system: U251 CNS
[51] = system: UACC-257 melanoma
[52] = system: UACC-62 melanoma
[53] = system: UO-31 renal

c1csc(-c2cn3nc(-c4c[nH]c5ccccc45)sc3n2)c1
10.5 µM: TGI [20]
50 µM: TGI [37]
98.3 µM: TGI [51]
6.44 µM: TGI [39]
4.6 µM: TGI [40]
10.2 µM: TGI [17]
33.5 µM: TGI [49]
82.7 µM: TGI [44]
52.5 µM: TGI [4]
8.09 µM: TGI [47]
> 100 µM: TGI [1] | TGI [3] | TGI [6] | TGI [8] | TGI [9] | TGI [15] | TGI [16] | TGI [18] | TGI [26] | TGI [27] | TGI [28] | TGI [29] | TGI [30] | TGI [32] | TGI [34] | TGI [35] | TGI [38] | TGI [45] | TGI [46] | TGI [48] | TGI [53]
20.9 µM: TGI [13]
15.6 µM: TGI [12]
26.7 µM: TGI [10]
active: GI50 [17] 0.413 µM | GI50 [19] 0.382 µM | GI50 [25] 0.225 µM
18.7 µM: TGI [52]
39.9 µM: TGI [14] | TGI [19]
15.4 µM: TGI [36]
44 µM: TGI [42]
23.8 µM: TGI [41]
0.685 µM: TGI [25]
70.6 µM: TGI [11]
15.8 µM: TGI [21]
27.2 µM: TGI [7]
36.9 µM: TGI [22]
20.2 µM: TGI [23]
76.4 µM: TGI [33]
15.1 µM: TGI [43]
17 µM: TGI [50]
inactive: GI50 [1] 3.06 µM | GI50 [2] 5.97 µM | GI50 [3] 1.72 µM | GI50 [4] 3.23 µM | GI50 [5] 2.87 µM | GI50 [6] 0.997 µM | GI50 [7] 2.19 µM | GI50 [8] 2.86 µM | GI50 [9] 1.99 µM | GI50 [10] 2.99 µM | GI50 [11] 0.627 µM | GI50 [12] 0.488 µM | GI50 [13] 0.76 µM | GI50 [14] 1.58 µM | GI50 [15] 5.46 µM | GI50 [16] 2.65 µM | GI50 [18] 1.79 µM | GI50 [20] 0.498 µM | GI50 [21] 0.75 µM | GI50 [22] 10.4 µM | GI50 [23] 1.17 µM | GI50 [24] 1.08 µM | GI50 [26] 9.94 µM | GI50 [27] 4.47 µM | GI50 [28] 0.574 µM | GI50 [29] 0.754 µM | GI50 [30] 0.561 µM | GI50 [31] 0.924 µM | GI50 [32] 4.42 µM | GI50 [33] 4.27 µM | GI50 [34] 2.72 µM | GI50 [35] 2.07 µM | GI50 [36] 1.47 µM | GI50 [37] 2.05 µM | GI50 [38] 3.84 µM | GI50 [39] 1.74 µM | GI50 [40] 1.49 µM | GI50 [41] 1.08 µM | GI50 [42] 4.74 µM | GI50 [43] 0.714 µM | GI50 [44] 2.8 µM | GI50 [45] 1.15 µM | GI50 [46] 2.56 µM | GI50 [47] 0.445 µM | GI50 [48] 0.434 µM | GI50 [49] 5.21 µM | GI50 [50] 1.21 µM | GI50 [51] 11.4 µM | GI50 [52] 0.738 µM | GI50 [53] 1.71 µM
7.88 µM: TGI [24]
9.02 µM: TGI [31]
31.7 µM: TGI [5]
23.6 µM: TGI [2]
